This is an account of results in US20100152298A1, “Present invention relates to a treatment for the management of cancer more specially the use of Flutamide anti-androgen drugsa” (UNIVERSITY OF KUWAIT, priority 2008, published 2010).

The test deals with androgen-independent prostate cancer PC-3 cells. Description: Growth, proliferation and viability of PC-3 cells treated with flutamide. The format is cell-based. The note with it: range of doses of flutamide.

As to `CC(C)C(=O)Nc1ccc([N+](=O)[O-])c(C(F)(F)F)c1` [flutamide, Flutamide], the inhibiting growth was 20-70%.
